Here are results for one compound from patent US20260234660A1, “TREATMENT OF MUSCLE RELATED DISORDERS WITH ANTI-HUMAN CACNG1 ANTIBODIES” (Regeneron Pharmaceuticals, Inc., priority 2023, published 2026).

Where a name gives a salt, the structure may show the parent alone.

The subject of this assay is human myotubes. Put plainly: Acetylcholine-induced calcium flux assay in human myotubes (FLIPR). The class given is cell-based. The note with it: 20 μM nicardipine, positive control for calcium blocking. The method, then:
CACNG1 is the γ1 subunit of the skeletal muscle specific L-type calcium channel, (dihydropyridine receptor), though genetic deletion of CACNG1 appears to have no major impact on skeletal muscle function. To determine whether antibodies that bind CACNG1 impact muscle function, a calcium flux assay was performed on human myotubes that were incubated with CACNG1 antibodies to determine whether these antibodies affect acetylcholine-induced calcium release.
Human skeletal myoblasts (Cook Myosite, Inc.) were plated at 10,000 cells/well of a 96-well plate and were differentiated for 7 days into myotubes. On the final day of differentiation, media was replaced with 50 μL of FLIPR calcium 5 dye with probenecid (Invitrogen) and 50 uL of assay buffer (0.1% BSA-DMEM) per well. CACNG1 and isotype control antibodies were serial diluted in assay buffer and added to the cells and incubated at 37° C. in a 5% CO2 incubator for 1 hour prior to the calcium flux assay. Nicardipine hydrochloride (Sigma) was added to untreated wells to serve as a control for calcium channel blockade. After 1 hour, acetylcholine (Sigma) was added at a 20 uM final concentration to induce myotube calcium release, and plates were assayed on a FLIPR Tetra (Molecular Devices, LLC).
(Calcium assays in cells follow changes in intracellular calcium, usually with a dye or a luminescent sensor.)

Regarding `COC(=O)C1=C(C)NC(C)=C(C(=O)OCCN(C)Cc2ccccc2)C1c1cccc([N+](=O)[O-])c1` (stereo not shown) [nicardipine, Nicardipine hydrochloride, reference compound], the “effect on human myotube calcium release” value is reported as “substantially reduced human myotube calcium release”.
